Laboratory results as given in patent US11306063B2, “Heterocyclic naphthoquinones derivatives for use in the treatment of cancers including Cushing disease” (Commissariat a l'Energie Atomique et aux Energies …, priority 2016, dated 2022).
Read-outs that look alike come from different tables or passages of the source. Blank lines part the entries; values can stand above or below the molecule they belong to.

Key:
Assay type in all cases: biochemical
[1] = target: T1, USP8^CD (purified catalytic domain of USP8) (Homo sapiens, UniProt P40818); assay: Inhibition of purified USP8^CD enzymatic activity (Ub-AMC or Ub-Rho substrate); conditions: for inhibition at 1 µM: 1 μM compound; for IC50: read-out: IC50 USP8 CD
T1 construct: the purified catalytic domain of USP8 (USP8^CD, in-house purified); made in house; host or cells: E. coli BL21 Gold
T1 sequence (P40818 777-1109 limits assumed): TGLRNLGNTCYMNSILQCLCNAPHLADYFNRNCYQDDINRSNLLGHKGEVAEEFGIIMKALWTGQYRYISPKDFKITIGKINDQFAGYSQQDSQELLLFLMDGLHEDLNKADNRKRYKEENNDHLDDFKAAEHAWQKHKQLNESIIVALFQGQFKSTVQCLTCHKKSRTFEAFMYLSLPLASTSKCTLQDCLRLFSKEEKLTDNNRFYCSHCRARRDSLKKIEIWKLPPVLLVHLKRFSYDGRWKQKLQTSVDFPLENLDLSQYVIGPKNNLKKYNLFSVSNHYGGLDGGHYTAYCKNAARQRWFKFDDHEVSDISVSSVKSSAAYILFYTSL
Method: (§1) USP2CD or USP8CD were expressed in E. coli BL21 Gold. Cells were grown in LB Miller to mid-log phase and induced by addition of 0.5 mM IPTG for USP2CD for 5 h at 20° C., while 1 mM IPTG was added for USP8CD for 3 h at 37° C. Then, cells were harvested and frozen at −80° C.
For His-tagged USP8CD, cells were resuspended in buffer A (50 mM TRIS pH 8.0, 500 mM NaCl, 2 mM Imidazole) and lysed using a sonicator. The lysate was clarified by centrifugation and applied to Ni Sepharose6 Fast Flow resin (GE Healthcare). The resin was sequentially washed first with buffer A containing 10 mM Imidazole then with buffer A containing 20 mM Imidazole, and finally with buffer A containing 50 mM Imidazole. Protein sample was eluted from the resin using buffer A containing 300 mM Imidazole. The eluted protein was buffer exchanged by gel-filtration on a Superdex 200 10/300 GL column (GE Healthcare) equilibrated in Buffer B (20 mM HEPES pH 7.5, 300 mM NaCl, 2 mM dithiothreitol (DTT)).
(§2) Enzymatic assay was performed in a HEPES buffer (50 mM pH7.6 1 mM DTT, 2% glycerol, 0.5 mM EDTA) or in a Tris buffer (40 mM pH7.4 1 mM DTT, 5% glycerol, 0.05 mg/ml BSA) respectively, following manufacturer's instructions. Compounds were added to the reaction mixture just prior to the substrate. The enzymatic reaction kinetics was monitored through the apparition of fluorescence due to the hydrolysis of the peptidyl Ub-AMC or Ub-Rho bound over 20 or 30 minutes.
(§3) Medium value out of duplicates is reported.

[2] = target: T2, USP2 full length (USP2^FL) (Homo sapiens, UniProt O75604); assay: Inhibition of Ub-AMC hydrolysis by USP2 full length; conditions: Ub-AMC at 1 μM, Table 1a; for inhibition at 1 µM: 1 μM compound; for inhibition at 5 µM: 5 μM compound; for inhibition at 25 µM: 25 μM compound; for inhibition at 50 µM: 50 μM compound
T2 construct: purchased BioSciences 80352
T2 sequence (O75604 1-605): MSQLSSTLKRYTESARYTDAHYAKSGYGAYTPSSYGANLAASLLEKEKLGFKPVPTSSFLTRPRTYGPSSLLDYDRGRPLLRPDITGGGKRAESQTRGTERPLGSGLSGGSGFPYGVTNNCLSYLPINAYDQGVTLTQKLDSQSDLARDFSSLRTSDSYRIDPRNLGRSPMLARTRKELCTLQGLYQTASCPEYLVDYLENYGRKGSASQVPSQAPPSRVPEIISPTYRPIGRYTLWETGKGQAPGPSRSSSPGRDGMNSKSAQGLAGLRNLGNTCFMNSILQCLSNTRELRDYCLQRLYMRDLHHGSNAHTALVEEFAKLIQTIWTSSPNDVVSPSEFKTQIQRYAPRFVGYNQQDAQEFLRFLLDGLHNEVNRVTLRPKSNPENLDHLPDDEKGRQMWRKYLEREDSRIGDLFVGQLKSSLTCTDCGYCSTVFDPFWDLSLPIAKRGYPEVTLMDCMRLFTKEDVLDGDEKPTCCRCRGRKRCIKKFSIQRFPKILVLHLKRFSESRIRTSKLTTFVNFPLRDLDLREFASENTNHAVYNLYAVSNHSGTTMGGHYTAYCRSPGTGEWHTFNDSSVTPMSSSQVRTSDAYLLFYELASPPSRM
Method: as §2

[3] = target: T3, USP2^CD (purified catalytic domain of USP2) (Homo sapiens, UniProt O75604); assay: Inhibition of purified USP2^CD enzymatic activity (Ub-AMC or Ub-Rho substrate); conditions: for inhibition at 1 µM: 1 μM compound; for inhibition at 5 µM: 5 μM compound; for IC50: read-out: IC50 USP2 CD
T3 construct: The purified catalytic domain of USP2 (USP2^CD, in-house purified); His; made in house; host or cells: E. coli BL21 Gold
T3 sequence (O75604 267-599 limits assumed): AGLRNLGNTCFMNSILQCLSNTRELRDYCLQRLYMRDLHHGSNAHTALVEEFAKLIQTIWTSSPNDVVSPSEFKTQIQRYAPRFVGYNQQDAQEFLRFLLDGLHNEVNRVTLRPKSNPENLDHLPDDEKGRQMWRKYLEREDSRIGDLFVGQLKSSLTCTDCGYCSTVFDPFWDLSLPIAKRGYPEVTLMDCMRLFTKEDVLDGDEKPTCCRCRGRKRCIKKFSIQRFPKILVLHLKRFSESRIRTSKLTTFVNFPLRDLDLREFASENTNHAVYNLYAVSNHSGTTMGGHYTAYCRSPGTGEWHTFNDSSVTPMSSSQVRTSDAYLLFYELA
Method: as §1
For His-tagged USP2CD, cells were resuspended in buffer C (10 mM TRIS pH 8.0, 100 mM NaCl, 10 mM Imidazole) and lysed using a sonicator. The lysate was clarified by centrifugation and applied to Ni Sepharose6 Fast Flow resin (GE Healthcare). The resin was sequentially washed with buffer C, then with buffer C containing 50 mM Imidazole. Protein sample was eluted from the resin using buffer C containing 250 mM Imidazole. The eluted protein was buffer exchanged by gel-filtration on a Superdex 200 10/300 GL column (GE Healthcare) equilibrated in Buffer D (15 mM Bis-TRIS pH 6.0, 100 mM NaCl, 1 mM dithiothreitol (DTT)).
as §2, §3

[4] = 0.1 μM compound, Ub-AMC at 1 μM, Table 1a
[5] = 0.5 μM compound, Ub-AMC at 1 μM, Table 1a
[6] = 5 μM compound, Ub-AMC at 1 μM, Table 1a
[7] = 25 μM compound, Ub-AMC at 1 μM, Table 1a
[8] = 50 μM compound, Ub-AMC at 1 μM, Table 1a
[9] = Ub-AMC substrate at 1 μM, Table 2b
[10] = Ub-Rhodamine substrate at 0.1 μM, Table 2c

USP8^CD % inhibition [1, 4]: 6%
USP8^CD % inhibition [1, 5]: 25%
inhibition at 1 µM ([1]; Ub-AMC at 1 μM, Table 1a): 7%
USP8^CD % inhibition [1, 6]: 43%
USP8^CD % inhibition [1, 7]: 100%
USP8^CD % inhibition [1, 8]: 86%
inhibition at 1 µM [2]: 0%
inhibition at 5 µM [2]: 28%
inhibition at 25 µM [2]: 58%
inhibition at 50 µM [2]: 94%
SMILES: CC/C=C/c1nc2c(nc1/C=C/CC)C(=O)c1ccccc1C2=O [PCR8156]

inhibition at 0.01 µM ([3]; 0.01 μM compound, Table 1c): 17%
inhibition at 0.05 µM ([3]; 0.05 μM compound, Table 1c): -7%
inhibition at 0.1 µM ([3]; 0.1 μM compound, Table 1c): 4%
inhibition at 0.5 µM ([3]; 0.5 μM compound, Table 1c): 6%
inhibition at 1 µM ([3]; Table 1b): 23%
inhibition at 1 µM ([3]; Table 1c): 57%
inhibition at 5 µM ([3]; Table 1b): 66%
inhibition at 5 µM ([3]; Table 1c): 19%
inhibition at 10 µM ([3]; 10 μM compound, Table 1c): 56%
inhibition at 25 µM ([3]; 25 μM compound, Table 1b): 95%
inhibition at 50 µM ([3]; 50 μM compound, Table 1b): 97%
IC50 [3, 9]: > 10000 nM
IC50 [3, 10]: 650 nM
inhibition at 0.01 µM ([1]; 0.01 μM compound, Table 1d): 27%
inhibition at 0.05 µM ([1]; 0.05 μM compound, Table 1d): 14%
inhibition at 0.1 µM ([1]; 0.1 μM compound, Table 1d): 30%
inhibition at 0.5 µM ([1]; 0.5 μM compound, Table 1d): 47%
inhibition at 1 µM ([1]; Table 1b): 77%
inhibition at 1 µM ([1]; Table 1d): 85%
inhibition at 5 µM ([1]; 5 μM compound, Table 1b): 100%
inhibition at 5 µM ([1]; 5 μM compound, Table 1d): 90%
inhibition at 10 µM ([1]; 10 μM compound, Table 1d): 98%
inhibition at 25 µM ([1]; 25 μM compound, Table 1b): 106%
inhibition at 50 µM ([1]; 50 μM compound, Table 1b): 103%
IC50 [1, 9]: 500 nM
IC50 [1, 10]: 10 nM
SMILES: CS(=O)(=O)Cc1nc2c(nc1CS(C)(=O)=O)C(=O)c1ccccc1C2=O [VIN6076]

Continued, molecule first:

SMILES: O=C1c2ccccc2C(=O)c2nc(CS(=O)(=O)c3ccc(F)cc3)c(CS(=O)(=O)c3ccc(F)cc3)nc21 [PCR7993]
USP8^CD % inhibition [1, 4]: 0%
USP8^CD % inhibition [1, 5]: 16%
inhibition at 1 µM ([1]; Ub-AMC at 1 μM, Table 1a): 34%
USP8^CD % inhibition [1, 6]: 22%
USP8^CD % inhibition [1, 7]: 101%
USP8^CD % inhibition [1, 8]: 102%
inhibition at 1 µM [2]: 29%
inhibition at 5 µM [2]: 59%
inhibition at 25 µM [2]: 58%
inhibition at 50 µM [2]: 98%

SMILES: Cc1ccc(S(=O)(=O)Cc2nc3c(nc2CS(=O)(=O)c2ccc(C)cc2)C(=O)c2ccccc2C3=O)cc1 [PCR7985]
USP8^CD % inhibition [1, 4]: 1%
USP8^CD % inhibition [1, 5]: 20%
inhibition at 1 µM ([1]; Ub-AMC at 1 μM, Table 1a): 55%
USP8^CD % inhibition [1, 6]: 23%
USP8^CD % inhibition [1, 7]: 61%
USP8^CD % inhibition [1, 8]: 98%
inhibition at 1 µM [2]: 33%
inhibition at 5 µM [2]: 49%
inhibition at 25 µM [2]: 59%
inhibition at 50 µM [2]: 95%

SMILES: O=C1c2ccccc2C(=O)c2nc(CS(=O)(=O)c3ccccc3)c(CS(=O)(=O)c3ccccc3)nc21 [PCR7986]
USP8^CD % inhibition [1, 4]: 1%
USP8^CD % inhibition [1, 5]: 13%
USP8^CD % inhibition [1, 8]: 36%
inhibition at 1 µM [2]: 46%
inhibition at 5 µM [2]: 74%
inhibition at 25 µM [2]: 78%
inhibition at 50 µM [2]: 92%
